Test results published in PubChem BioAssay (NCI).
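Method: 48-hour compound exposure of cells in 96-well plates, five concentrations, linear interpolation of endpoints. TGI: concentration producing complete growth inhibition.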

Key:
Test in all cases: NCI tumour cell line growth inhibition, 48 h
[1] = test system: SK-MEL-2 melanoma
[2] = test system: DU-145 prostate
[3] = test system: NCI-H23 lung
[4] = test system: SK-OV-3 ovarian
[5] = test system: CAKI-1 renal
[6] = test system: OVCAR-5 ovarian
[7] = test system: HOP-62 NSCLC
[8] = test system: UACC-62 melanoma
[9] = test system: NCI-H226 lung
[10] = test system: SF-539 CNS
[11] = test system: COLO 205 colon
[12] = test system: UACC-257 melanoma
[13] = test system: TK-10 renal
[14] = test system: SNB-19 CNS
[15] = test system: OVCAR-8 ovarian
[16] = test system: SNB-75 CNS
[17] = test system: PC-3 prostate
[18] = test system: HT29 colon
[19] = test system: MALME-3M melanoma

Row | SMILES | TGI [1] [µM] | TGI [2] [µM] | TGI [3] [µM] | TGI [4] [µM] | TGI [5] [µM] | TGI [6] [µM] | TGI [7] [µM] | TGI [8] [µM] | TGI [9] [µM] | TGI [10] [µM] | TGI [11] [µM] | TGI [12] [µM] | TGI [13] [µM] | TGI [14] [µM] | TGI [15] [µM] | TGI [16] [µM] | TGI [17] [µM] | TGI [18] [µM] | TGI [19] [µM]
1 | CC(=O)NC1C(OC2C(CO)OC(OCC3OC(n4ccc(N)nc4=O)C(O)C3O)C(NC(C)=O)C2O)OC(CO)C(O)C1O (stereo not drawn) | > 100 | > 100 | > 100 | > 100 | > 100 | > 100 | > 100 | > 100 | > 100 | > 100 | > 100 | > 100 | > 100 | > 100 | > 100 | > 100 | > 100 | > 100 | > 100
2 | O=c1c2cc(-c3ccccc3)cnc2sn1-c1ccc(Oc2ccccc2)cc1 | > 100 | > 100 | > 100 | > 100 | > 100 | > 100 | 56.8 | > 100 | > 100 | > 100 | > 100 | > 100 |  | 54.7 | > 100 | 75.9 | 52.1 | 47.6 | > 100
3 | COc1cc([C@@H]2c3cc4c(cc3[C@@H](OC3OC5COC(C)OC5C(OC(=O)CN5CCN(C)CC5)C3OC(=O)CN3CCN(C)CC3)C3COC(=O)[C@@H]32)OCO4)cc(OC)c1OC(=O)CN1CCN(C)CC1 (stereo partly drawn) | > 100 | > 100 | > 100 | > 100 | > 100 | > 100 | > 100 | > 100 | > 100 | 73.4 | > 100 | > 100 | > 100 | > 100 | > 100 | 84.9 | > 100 | > 100 | > 100
4 | CCCC(=O)NC(C(=O)OCC)(N1CCOCC1)C(F)(F)F (stereo not drawn) | > 100 | > 100 | > 100 | > 100 | > 100 | > 100 | > 100 | > 100 | > 100 | > 100 | > 100 | > 100 | > 100 | > 100 | > 100 | > 100 | > 100 | > 100 | > 100
5 | CCOC(=O)c1c(-c2ccccc2)nc2c(OC)nccn12 | > 100 | > 100 | > 100 | > 100 | > 100 |  | > 100 | > 100 | > 100 | > 100 | > 100 | > 100 | > 100 | > 100 | > 100 | > 100 | > 100 | > 100 | > 100
6 | O=[N+]([O-])c1ccc(N/N=C(\c2ccccc2)c2ccccn2)nc1 | > 94.9 | 36.8 | 14.9 | 24 | 29.1 | 85.1 | 31.2 | > 54.3 |  | 15.3 | > 60 | 29.8 |  | > 42.5 | 23.8 | 28.4 | > 44.7 | > 100 | 14.4
7 | CC(C)[Si](OC1=C(c2ccccc2)C(NC(=O)/C=C/c2ccc([N+](=O)[O-])cc2)CCC1)(C(C)C)C(C)C (stereo not drawn) | > 100 | > 100 | > 100 | > 100 |  | > 100 | > 100 | > 100 | > 100 | > 100 | > 100 | > 100 | > 100 | > 100 | > 100 | > 100 | > 100 | > 100 | > 100
8 | Clc1ccc(C2=C(c3ccccc3)C(c3ccc(Cl)cc3)N3C(=N[C@H]4CCCC[C@@H]43)N2)cc1 (stereo partly drawn) | 29.9 | 25.9 | 28 | 30.8 | 30.1 | 29.8 |  | 31.4 | 47.9 | 29.7 | 19.4 | 32.2 | 22.3 | 27.6 | 29.5 | 30 | 21.8 | 11.7 | 34.8
9 | CCOC(=O)c1c[nH]cc1-c1cn(S(=O)(=O)c2ccccc2)cc1C | > 100 | > 100 | 69.8 | > 100 | 48.4 | > 100 | > 100 | 33.6 |  | 53.5 | 42.4 | 37.6 | > 100 | > 100 | > 100 | 63.1 | 56.3 | 52.8 | 40.4
10 | Cc1ccc([N+](=O)[O-])cc1S(=O)(=O)Nc1ccc(C2=NN(C(=O)c3ccccc3)C(c3cccs3)C2)cc1 (stereo not drawn) | 39.5 | > 100 | 61.7 | 82.5 | > 100 | > 100 | 78.3 |  | 88.3 | 63.9 | 32.8 | 72.9 | 75.1 | > 100 | > 100 | 67 | > 100 | > 100 | 68.6
11 | CCOC1(OCC)N=C(N)C2(C#N)C3(C(=O)N(C(C)C)N=C3C)C12C#N (stereo not drawn) | > 100 | > 100 | > 100 | > 100 | > 100 | > 100 | > 100 | > 100 | > 100 | > 100 | > 100 | > 100 |  | > 100 | > 100 | > 100 | > 100 | > 100 | > 100
12 | O=Nc1sc(=N\O)/c(=N/O)sc1NO | > 100 | > 100 | > 100 | > 100 | > 100 | > 100 | > 100 | > 100 | > 100 | > 100 | > 100 | > 100 |  | > 100 | > 100 | > 100 | > 100 | > 100 | > 100
13 | CC1=CC(=O)[C@@H](O)[C@]2(C)[C@H]3[C@@]4(O)OC[C@@]35[C@@H](C[C@@H]12)OC(=O)C(OC(=O)CC1=CCCC1)[C@H]5[C@@H](C)[C@H]4O (stereo partly drawn) | 0.237 | 4.66 | 0.152 | 5.04 | 1.63 | 0.687 | 0.108 | 0.21 | 0.0632 | 0.0676 | 0.724 | 0.217 | 0.948 |  | 0.139 | 0.155 | 0.733 | 0.203 | 0.0666
14 | COCCN(CCOC)C(=O)COc1c2cc(C(C)(C)C)cc1Cc1cc(C(C)(C)C)cc(c1OCC(=O)N(CCOC)CCOC)Cc1cc(C(C)(C)C)cc(c1OCC(=O)N(CCOC)CCOC)Cc1cc(C(C)(C)C)cc(c1OCC(=O)N(CCOC)CCOC)Cc1cc(C(C)(C)C)cc(c1OCC(=O)N(CCOC)CCOC)C2 | 3.19 | 11.1 | 4.19 | 14.6 |  | 18.2 | 5.04 | 3.53 | 11 | 5.9 | 1.96 | 6.58 | 15 | 16.4 | 22.8 | 0.576 | 3.48 | 8.13 | 16.9
15 | CCC12CC(c3ccccc3)C(C(=O)N1)C(=O)N2 (stereo not drawn) | > 100 | > 100 | > 100 | > 100 | > 100 | > 100 | > 100 | > 100 | > 100 | > 100 | > 100 | > 100 |  | > 100 | > 100 | > 100 | > 100 | > 100 | > 100
16 | O=C1C2=Cc3ccccc3OC2(O)Oc2ccc(O)cc21 (stereo not drawn) | > 100 | > 100 | > 100 | > 100 | > 100 | > 100 | > 100 | > 100 | > 100 | > 100 | > 100 | > 100 | > 100 |  | > 100 | > 100 | > 100 | > 100 | > 100
17 | C/C(=N\Nc1nc2ccccc2s1)c1cnccn1 | 49.9 | > 100 | 12.3 | > 27.7 | > 42.2 | > 77.7 | > 54.8 | > 60.6 | 1.38 | 36.7 | > 36.9 | > 100 |  | > 29.4 | 5.86 | > 31.3 | > 67.4 | 2.81 | 43.7
18 | O=C1C(=c2cc3c(c4ccccc24)=NC24CCCCC2C(c2ccccc2)C=C(c2ccccc2)N34)C(=O)c2ccccc21 (stereo not drawn) | > 100 | > 100 |  | > 100 | > 100 | > 100 | > 100 |  | > 100 | > 100 | > 100 | > 100 | > 100 | > 100 | > 100 | > 100 | > 100 | > 100 | > 100
19 | CCC1c2[nH]c3ccccc3c2C[C@H]2C(=O)NC(CCCCNC(=O)OC(C)(C)C)C(=O)N12 (stereo partly drawn) | 57.8 | > 100 | 59.6 | > 100 | 70.4 | > 100 | > 100 | 49.2 | > 100 |  | 66.9 | 66.8 | > 100 | > 100 | > 100 | 58.2 | 58.7 | 99.3 | 50.5
20 | NC(=O)CCC(CCC(N)=O)(CCC(N)=O)[N+](=O)[O-] | > 100 | > 100 | > 100 | > 100 | > 100 | > 100 |  | > 100 | > 100 | > 100 | > 100 | > 100 | > 100 | > 100 | > 100 | > 100 | > 100 | > 100 | > 100
21 | CC(C)(C)C1(O)C=C(O)C(=O)N1NC(=O)c1ccccc1Nc1ccccc1 (stereo not drawn) | > 100 | > 100 | > 100 | > 100 | > 100 | > 100 |  | 63 | > 100 | > 100 | > 100 | 72.2 | > 100 | > 100 | > 100 | > 100 | > 100 | > 100 | > 100
22 | CC1C2(C)OC(=N)C(C#N)(C(C)O2)C1(C#N)C#N (stereo not drawn) | 46.6 | 87 | 86.8 | > 100 | 26.4 | > 100 |  | 43.8 | > 100 | 47.1 | 24.5 | 46 | > 100 |  | > 100 | > 100 | > 100 | > 100 | 62.3
23 | OCCCc1cc(O)c2c(c1)C(CO)C(c1ccc(O)c(O)c1)O2 (stereo not drawn) | > 100 | > 100 | > 100 | > 100 | > 100 | > 100 | > 100 | > 100 | > 100 | > 100 | > 100 | > 100 | > 100 | > 100 | > 100 |  | > 100 | > 100 | > 100
24 | CCC(CCN)(CCN)[N+](=O)[O-] | > 100 | > 100 |  | > 100 | > 100 | > 100 |  | > 100 |  | > 100 | > 100 | > 100 |  |  | > 100 | > 100 | > 100 | > 100 | > 100
